Reference: patent publication US11739132B2, “Separation moieties and methods of use thereof” (Werewolf Therapeutics, Inc., priority 2019, dated 2023)
No end group written: not given here.

Tests used:
[1] = tested on: cell lysates of MC38, CT26, CT26-MMP9+ and myofibroblast cell lines; experiment: FRET assay of cell lysates (cell-associated activity); format: biochemical, mouse; conditions: for Cleavage activity detected in cell lysates: four cell lines
Source text: (§1) Conditioned media and cell lysate samples were received from Charles River Laboratories for the murine colon cancer cell lines: MC38 (epithelial), CT26 (fibroblast), and CT26 transduced with a lentivirus for doxycyclin-inducible expression of MMP9 (CT26 pLVX MMP9-5T4+dox). An immortalized mouse intestinal myofibroblast cell line (ABM Good #T0565) was used as a control stromal cell line, grown under manufacturer recommended conditions. Conditioned media and cell lysate samples were also received for screening purposes from ABM Good for the immortalized mouse colonic epithelial cell line YAMC (ABM Good #T0567).
(§2) Conditioned media samples were prepared according to the standard protocol using logarithmic phase cells. Briefly, cells were grown for 16h in either serum-free media or in complete media containing 10% fetal bovine serum (FBS). After conditioned media collection, the adherent cells were washed then lysed on plate with non-denaturing lysis buffer to produce a lysed “cell pellet” to capture any activity that remained associated with the cells. All cell culture-derived conditioned media samples, cell lysates from Charles River Laboratories, and cell lysates derived internally were processed with identical methods, to allow comparison between samples.
To test for cell pellet-associated FAPa activity, the cell lysates were clarified by ultracentrifugation and then assayed neat in the FRET assay. […] A modest 2-fold greater activity was detected in the three tumor cell lines over the myofibroblast cell line. For comparison, CTSL1 activity was also tested in the cell lysates. CTSL1 is a lysosomal enzyme; therefore, activity toward CTSL1_1 was expected to be similarly abundant in all four cell lines. The ratio of CTSL1_1 cleavage in tumor vs control cell lines in this screening format was ˜1× (grey bars, left-hand bar of each pair, FIG. 41). FAPα (fibroblast activating protein-alpha) is a marker for fibroblast (CT26) and myofibroblast cell lines.

CTSL1 [2] = molecular target: T1, CTSL1 (Homo sapiens, UniProt P07711); experiment: 30-mer tandem linker library MSP-MS, CTSL1; format: biochemical
Procedure: (§3) Protease specificity screening was performed using Multiplexed Substrate Profiling by Mass Spectrometry (MSP-MS), the method described in, e.g. O'Donoghue A. J. et al., Nat Methods., 2012; 9(11): 1095-1100. This method employs a physico-chemically diverse peptide library as substrates for proteases, and reactions are monitored over time with mass spectrometric detection of cleaved products. The resulting cleavages are assessed for specific cleavage in the enzyme-treated sample by comparison with results from a no-enzyme control incubation.
(§4) Enzymes were activated and assayed following the manufacturer's recommendations.
(§5) For CTSL1, enzyme was activated by pre-incubation in assay buffer (50 mM MES, 5 mM DTT, 1 mM EDTA, pH=6) for 15 min. MSP-MS reactions were then started with the mixing of enzyme and substrate, at final CTSL1 concentration of 0.04 ng/μl (0.77 nM), and peptide substrate concentration at 500 nM.
This hypothesis was tested in the context of the hybrid linker design experiment. Shown in FIG. 46 are the results of cleavage of two matched 30-mer peptides with the following sequences:
(§6) To analyze the catalytic efficiency of candidate tandem linker designs, a tailored library approach using MSP-MS was applied. For the tailored library, a set of nineteen synthetic peptides, 30 amino acids in length (30-mers), were designed to test whether sequence context affects the efficiency of cleavage. Peptides were assayed in a multiplex format together as a substrate library with individual recombinant enzymes, using MSP-MS. For quantitative comparisons, kinetic analysis was performed over a time course, and results are reported either as a catalytic efficiency kcat/KM for well-behaved first-order kinetics, or as observed rates as kobs for more complex kinetic behavior.
(§7) Catalytic efficiency (kcat/KM) estimations were used to rank the top cleaved substrates in the MSP-MS reaction. Peptides were quantified by mass spectrometric label-free quantitation from the MS1 precursor ion peak areas for each peptide. Enzyme progress curves were modeled from six-time point measurements in GraphPad Prism. Data were fitted using non-linear least squares fitting to the first order kinetics equation:
(§8) [formula] where Y=percent product formation or substrate consumption, and t=time. The observed rate is a function of the enzyme concentration [E0], and an observed catalytic efficiency (kcat/KM) in units M^−1s^−1

[3] = tested on: conditioned media from MC38, CT26, CT26 pLVX MMP9-5T4+dox and myofibroblast cell lines; experiment: FRET end-point screen of conditioned media; format: biochemical, mouse; conditions: conditioned media
Source text: Proteolytic activity was screened in the conditioned media samples by fluorescent resonance energy transfer (FRET) assays with the substrates listed in Table 10.
as §1, §2
The resulting conditioned media was buffer exchanged with PBS and concentrated to 10× the original titer as a stock solution.
FBS background controls were therefore used for baseline subtraction at each concentration of substrate throughout the FRET experiments.
(§9) In the end-point screening assays, a fixed titer of 10× concentrated sample and a substrate concentration of 10 μM was used. Values reported in the end-point experiments are initial velocity measurements, in relative fluorescence units (RFU) per second. End-point measurements are a starting point for a screen, but the rate of the reaction is non-linearly related to substrate concentration. Therefore, a more accurate representation of activity would be given by steady-state kinetic measurements covering a range of substrate concentrations. To compare activity across cell lines, the data were treated with a Michaelis-Menten model, and the concentration of equivalent enzyme units [E0] was solved.

[4] = tested on: conditioned media from tumor, myofibroblast and YAMC cell lines; experiment: FRET steady-state kinetics of conditioned media (enzyme equivalents); format: biochemical, mouse; conditions: for Secreted activity in conditioned media, steady-state kinetics: tumor cell lines
Source text: as §1, §9
Accordingly, initial velocity was measured as a function of substrate concentration, using a 2-fold dilution series from 250 to 1 μM. Data were fitted using non-linear least squares fitting with GraphPad Prism software v 8.0 to the Michaelis-Menten equation:
[formula] where kcat is the rate of product formation under steady-state conditions in units (s^−1), and KM is the Michaelis constant that gives the substrate concentration in molar units (M) at which half maximum velocity of the reaction is produced for a given enzyme, [E0] is the enzyme concentration, and [S] the substrate concentration in (M).
In the assays where purified recombinant enzyme is used, the Michaelis-Menten parameters are as classically defined above. For conditioned media samples, the effective titer of conditioned media per assay was adjusted to approximately a 2× concentrate of the original unprocessed media samples to assure that the detection range matched the signal produced. The enzyme component in the calculation is redefined as a mixture of possible proteases that contribute to the cumulative observed activity, each with intrinsic reactivity toward a substrate. In this case, it is more appropriate to consider kcat and KM as macroscopic constants that represent the overall efficiency of catalysis, and E0 is an enzyme equivalent, expressed in units of concentration. To solve the data fit, kcat/KM can be fixed at that of the recombinant enzyme and enzyme equivalents per cell culture volume can be output. The effective titer of enzyme equivalents in this case can be used to compare the activity produced by the different cell lines.
An immortalized mouse colonic epithelial cell line (YAMC) was used to test activity in the presence of additional control “normal” epithelial cells. YAMC's are given the calculated enzyme equivalents (nM) resulting from all of these steady state experiments, to allow for comparison of the amount of equivalent activity per sample. For example, the YAMC control epithelial cell line produced activity with the ADAM17_2 substrate equivalent to that of 0.52±0.03 nM of ADAM17 recombinant enzyme. This cell line compares directly to MC38, also of epithelial origin, which had activity equivalent to that of 0.32±0.03 nM of ADAM17 recombinant enzyme. […] This cell line required non-standard cell culture conditions, including growth with murine IFNγ, and at low temperature to maintain, and may not be fully representative of epithelial cell lines.

CTSL1 [5] = molecular target: T1, CTSL1; experiment: In vitro FRET kinetics with CTSL1; format: biochemical; conditions: 8-mer FRET peptide, Mca/Dnp pair
Procedure: as §4, §5
Additional in vitro kinetic experiments were performed to characterize a new candidate motif for CTSL1 enzyme; the CTSL1_2 motif has the sequence […] (SEQ ID NO: 199). […] Yet, initial experiments with the CTSL1_2 FRET substrate were inconclusive, possibly due to artifacts in the FRET assay; therefore, a new FRET peptide construct was designed with the 9-mer sequence […] (SEQ ID NO: 236).
All of the FRET substrates used in these studies have a methoxycoumarin (Mca) fluorophore and dinitrophenyl-lysyl (Dnp) quencher pair at the N- and C-termini of the sequences, respectively.

FAPα = molecular target: T2, FAPα (Homo sapiens, UniProt Q12884); experiment: 30-mer tandem linker library MSP-MS, FAPα; format: biochemical; conditions: at PGGP|AGIG and GP|AGLYAQ respectively
T2 construct: purchased R&D Systems (Bio-techne) 930-ADB-010
T2 sequence (Q12884 1-760): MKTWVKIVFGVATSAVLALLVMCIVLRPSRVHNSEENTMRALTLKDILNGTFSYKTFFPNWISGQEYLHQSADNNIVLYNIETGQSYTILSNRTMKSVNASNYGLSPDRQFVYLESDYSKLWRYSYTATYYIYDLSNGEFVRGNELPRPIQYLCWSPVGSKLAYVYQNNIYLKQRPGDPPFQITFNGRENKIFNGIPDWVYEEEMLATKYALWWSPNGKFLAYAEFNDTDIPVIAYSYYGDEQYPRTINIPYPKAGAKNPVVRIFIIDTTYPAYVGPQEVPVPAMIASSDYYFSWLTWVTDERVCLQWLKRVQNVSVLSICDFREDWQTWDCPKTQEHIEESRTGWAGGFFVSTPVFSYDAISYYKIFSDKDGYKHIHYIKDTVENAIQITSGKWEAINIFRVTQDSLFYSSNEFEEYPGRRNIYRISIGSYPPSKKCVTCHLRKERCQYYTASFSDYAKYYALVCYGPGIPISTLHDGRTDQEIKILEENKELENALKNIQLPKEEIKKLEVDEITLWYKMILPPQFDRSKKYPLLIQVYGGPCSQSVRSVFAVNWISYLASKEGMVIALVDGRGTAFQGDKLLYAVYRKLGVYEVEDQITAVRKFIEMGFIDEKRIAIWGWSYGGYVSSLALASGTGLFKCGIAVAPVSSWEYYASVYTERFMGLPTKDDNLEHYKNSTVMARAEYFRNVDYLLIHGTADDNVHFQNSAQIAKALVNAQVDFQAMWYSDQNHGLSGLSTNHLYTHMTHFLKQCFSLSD
Procedure: as §3, §4
FAPα activity was tested with fluorescence detection using a generic Z-GP-AMC substrate. For FRET assays, the final enzyme concentration was 5 nM and the buffer was 50 mM TRIS HCl, 1 M NaCl, 1 mg/mL BSA, pH 7.5.
as §6, §7, §8

Hepsin = molecular target: T3, Hepsin (Homo sapiens, UniProt P05981); experiment: 30-mer library counter-screening MSP-MS, Hepsin; format: biochemical
T3 construct: purchased R&D Systems (Bio-techne) 4776-SE
Procedure: as §3, §4
Hepsin was pre-activated overnight at 37° C. in the manufacturer recommended buffer: 100 mM TRIS, 10 mM CaCl2, 150 mM NaCl, 0.05% Brij-35, pH 8.0. Activity was measured with 2.4 or 24 nM enzyme in the buffer: 50 mM TRIS HCl at pH 7.4.
(§10) Counter-screening was performed against the enzymes Thrombin, Factor Xa and Hepsin using this library as well, and for calibration of activity, a positive-control peptide bearing favorable motifs for these enzymes was also designed (ALU30-19).
as §7, §8
(§11) Counter-screening with Thrombin, Factor Xa and Hepsin was also performed following the same analysis. The library peptide Alu30-19 was designed to include authentic sites for each enzyme, for comparison of overall cleavage efficiency as well as cleavage site specificity within each motif. The substrate designed for Factor Xa has the motif FNPR|TFGS (SEQ ID NO: 248), derived from the Factor Xa cleavage site in Thrombin. The substrate motif for Thrombin was FPR|, a common tool substrate motif. The substrate motif for hepsin was RKRR|GSRG (SEQ ID NO: 249) from filaggrin.

Thrombin = molecular target: T4, Thrombin (Homo sapiens, UniProt P00734); experiment: 30-mer library counter-screening MSP-MS, Thrombin; format: biochemical
T4 construct: purchased R&D Systems (Bio-techne) 2196-SE-200
Procedure: as §3, §4
Thrombin was activated following the manufacturer's recommended conditions by pre-incubation with the enzyme with thermolysin for 15 min, and then the thermolysin was quenched with 1,10 phenanthroline treatment. Activated thrombin was assayed at 1.2 nM in activation buffer: 50 mM TRIS HCl, 10 mM CaCl2, 150 mM NaCl, 0.05% (w/v) Brij-35, pH 7.5.
as §10, §7, §8, §11

T1 sequence (P07711 114-333): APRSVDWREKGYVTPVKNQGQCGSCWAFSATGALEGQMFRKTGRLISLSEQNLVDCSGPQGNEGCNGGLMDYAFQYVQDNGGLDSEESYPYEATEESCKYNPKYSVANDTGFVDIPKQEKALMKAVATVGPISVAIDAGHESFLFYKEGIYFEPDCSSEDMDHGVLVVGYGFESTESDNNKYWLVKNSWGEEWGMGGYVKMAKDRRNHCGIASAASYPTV
T3 sequence (P05981 163-417 limits assumed): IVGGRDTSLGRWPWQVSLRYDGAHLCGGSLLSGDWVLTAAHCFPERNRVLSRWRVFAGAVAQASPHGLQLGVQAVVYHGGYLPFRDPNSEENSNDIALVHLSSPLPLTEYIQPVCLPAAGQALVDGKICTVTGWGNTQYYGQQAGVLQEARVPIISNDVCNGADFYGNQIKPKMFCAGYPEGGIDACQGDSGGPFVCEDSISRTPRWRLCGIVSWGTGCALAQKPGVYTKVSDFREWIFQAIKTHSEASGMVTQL
T3 sequence (P05981 1-162 partner limits assumed): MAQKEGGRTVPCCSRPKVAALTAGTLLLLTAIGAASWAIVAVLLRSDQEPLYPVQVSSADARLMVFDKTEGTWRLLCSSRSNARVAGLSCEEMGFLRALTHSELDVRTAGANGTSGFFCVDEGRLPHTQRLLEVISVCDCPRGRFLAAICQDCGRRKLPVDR

Row | Sequence | Cell-associated activity, MC38 vs other cell lines ([1]; cell lysates) | Ratio of cleavage in tumor vs control cell lines, cell lysates ([1]; cell lysates assayed neat) [×] | Cleavage activity detected in cell lysates [1] | −1 site product formation by CTSL1 (CTSL1 [2]; matched 30-mer peptides SEQ ID NO: 207 (CTSL1_1) and 219 (CTSL1_2)) | Substrate cleavage activity, CT26-MMP9+ cell line ([3]; end-point screen) | Substrate cleavage activity, MC38 and CT26 parental cell lines ([3]; end-point screen) | Substrate cleavage activity, control myofibroblast cell line ([3]; end-point screen) | Secreted activity in conditioned media, steady-state kinetics [4] | Cleavage of 8-mer FRET substrate by CTSL1 (CTSL1 [5]) | Cell-associated activity in myofibroblasts ([1]; cell lysates) | Activity in three tumor cell lines over myofibroblast cell line, cell lysates ([1]; cell lysates assayed neat) [fold] | Cleavage of motif by FAPα (FAPα) | Substrate cleavage activity in the end-point screen [3] | Secreted activity in myofibroblast conditioned media, steady-state kinetics ([4]; myofibroblast) | Relative efficiency of cleavage by hepsin (Hepsin) | Relative efficiency of 30-mer peptide cleavage by CTSL1 (CTSL1 [2]) | Relative efficiency of 30-mer peptide cleavage by thrombin (Thrombin)
1 | ALFKSSFP (also: Mca fluorophore and Dnp quencher, places not given here) [CTSL1_1, FRET substrate with Mca fluorophore and Dnp quencher] | significantly greater in MC38 cells over the myofibroblast, CT26 parental, and CT26-MMP9+ cells | ~1 | detected in all of the cell lysates | had a −1 site product | undetectable activity | low activity | undetectable activity | no measurable activity above background | highly efficiently |  |  |  |  |  |  |  | 
2 | PGGPAGIG (also: Mca fluorophore and Dnp quencher, places not given here) [FAPα_1, FRET substrate with Mca fluorophore and Dnp quencher] |  |  | detected in all four cell lines |  |  |  |  | lower activity than that associated with the cell pellet |  | did have cell-associated activity | 2 | able to cleave | very low, but was still detected in all three tumor cell lines | no measurable secreted activity |  |  | 
3 | RGGGPAGLYAQPLAQKLKSSALFKSSFPGG [Alu30-15] |  |  |  |  |  |  |  |  |  |  |  |  |  |  | slightly higher hepsin susceptibility | lower CTSL1 activity | cleaved at lower efficiency
